Holding throughout (format): physicochemical
The nature of series [1]: Variable Humidity XRPD (VH-XRPD). To be noted: 30° C., RH profile 40→87→0→60% (Form A1), 40→85→0→60% (Form C). The procedure: The powder data were collected on D8 Advance diffractometer using Cu Kα1 radiation (1.54056 Å) with germanium monochromator at 30° C. using the SYCOS H-HOT hot humid chamber produced by Ansyco GmbH. The data were collected in the Bragg-Brentano geometry (locked coupled) from 8 to 35° 2θ on the flat sample holder (without rotation) on solid state LynxEye detector with 0.018° per step with 1 sec/step scan speed. After reaching demanded humidity the sample was relaxed for 5 minutes before measurement. The sample was optionally measured with 2 seconds per step and in the last measurement at RH 0% the relaxation time was elongated to 30 min.
Variable Humidity XRPD (VH-XRPD) measurements were performed on Forms A1 and C to investigate the in-situ phase changes induced by exposure to variable RH levels. Diffractograms of Form A1 were collected at 30° C. with a RH profile of 40→87→0→60% (FIG. 2). Initially, the pattern of Form A1 was distinguished at 40% RH. By increasing the RH level up to 87%, no changes in the XRPD pattern were detected. Furthermore, no changes were observed by lowering the RH from 87% down to 20%.

The nature of series [2]: Dynamic Vapor Sorption (DVS) measurement. To be noted: for hygroscopic behavior: 40 to 95% RH.
The nature of series [3]: Intrinsic dissolution rate determination in FaSSGF. Particulars: for IDR: FaSSGF pH 1.6, 37° C., interval 3-30 min (Form A1), 10-45 min (Form C); for API concentration in solution: FaSSGF, 37° C. The method, then:
The intrinsic dissolution rate of Forms A1 and C was determined in FaSSGF. […] The pressure applied was approximately 40 bar for 2 minutes. The two tablets were placed in 30 mL vials and afterwards the FaSSGF solution pre-warmed at 37° C. […] After FaSSGF addition, stirring was started. The medium (20 mL) was added to vessels containing tablets of Forms A1 and C. The tablets were kept at 37° C. under continuous stirring. […] In the plot shown in FIG. 14, the % concentration of the API in solution is plotted against the time. The dissolution rate (Table 16) was calculated in the interval between 3 and 30 minutes for the experiment started with Form A1, and in the range 10-45 minutes for the experiment started with Form C.

Series [4] in a line: Physical stability test of solid forms. The procedure:
Solid samples of Forms A1, B1 and C were incubated at three different conditions to test their physical stability: 80° C., closed vial, 24 hours; 60° C./29% RH, open vial, 48 hours; and 40° C./75% RH, open vial, 48 hours. The solids recovered after the stability studies were analyzed by HR-XRPD, TGMS and DSC.

Series [5] is described as follows: Solubility in biorelevant media (shake-flask). The procedure:
The experiments were performed in triplicate. Approximately 30 mg of API were weighed in the 8 mL glass vials and an aliquot of media was added (see Table 14 for details). […] Upon completion of the equilibration time, the solids were separated from the liquid phases by centrifugation. The mother liquors were filtered using […] PTFE filters and injected at the HPLC to determine the API concentration in solution. The pH was recorded after 3 hours (1 hour for FaSSGF). The recovered ambient-dried solids were analyzed by HT-XRPD.

Series [6] can be described thus: Exposure to accelerated aging conditions (AAC). Particulars: 40° C./75% RH for 2 days. The source says: The polymorphic behavior of squalamine phosphate (ENT-01) and the physico-chemical properties of two hydrated phases were investigated. A squalamine tetrahydrate, designated Form A1, was identified. The squalamine polymorphism assessment and hydrate screen allowed identification of several squalamine crystalline phases. Among these phases, four squalamine hydrates (Forms B1, B2, C, D) and three mixed squalamine hydrates/solvates (Forms A2, E, F) were identified. All phases converted to squalamine Form A1 upon exposure to accelerated aging conditions (ACC) (2 days at 40° C./75% RH).
In the vacuum-dried solids, a novel pattern very similar to Form A1 but with shifted peaks was identified. This phase was designated Form A2 (see Table 2) and characterized by HT-XRPD. […] Form A2 was identified in several vacuum-dried solids recovered from the hydrate screen experiments.

Setting [7] is: desorption, between 5 and 0% RH.
Setting [8] is: desorption, between 25 and 5% RH.
Where [9] appears, read: first sorption cycle, between 45 and 95% RH.
Where [10] appears, read: last sorption cycle, between 25 and 45% RH.
[11] abbreviates: after 40° C./75% RH, open vial, 48 h (TGMS).
Where [12] appears, read: after 60° C./29% RH, open vial, 48 h (TGMS).
The mark [13] stands for this setting: after 80° C., closed vial, 24 h (TGMS).
Setting [14] is: FaSSGF (pH 1.6), 37° C., 1 hour.
The mark [15] stands for this setting: FaSSIF (pH 6.5), 37° C., 3 hours.

SMILES strings stand for the structures. Entries after “also recorded” stand apart in the source; their conditions may differ. Like-named read-outs stand apart in the source and are kept apart here.

`CC(C)[C@@H](CC[C@@H](C)[C@H]1CC[C@H]2[C@@H]3[C@H](O)C[C@H]4C[C@@H](NCCCNCCCCN)CC[C@]4(C)[C@H]3CC[C@]12C)OS(=O)(=O)O.O=P(O)(O)O` [Form A1, squalamine phosphate]: in series [1], the “physical stability under variable RH levels” value is reported as “stable in the range 40→87→20% RH; also recorded: started to release water at RH levels below 20%”. For the same molecule, the hygroscopic behavior result in series [2] is “slightly hygroscopic”. Further, in series [2] (between 35 to 65% RH), the “change in mass (water absorbed)” value came out at 0.7%. For the same molecule, the change in mass in series [2] (desorption, 95-55% RH) is 0.9%; in series [2] (setting [7]), 5.3%; in series [2] (setting [8]), 1.7%; in series [2] (desorption, between 45 and 25% RH) it was 0.6%; in series [2] (desorption, between 55 and 45% RH) it was 1%; in series [2] (last sorption cycle, 0-25% RH), 7%. Moreover, the “change in mass (water vapor uptake)” value was 2.1% in series [2] (setting [9]) and 0.6% in series [2] (setting [10]). The molecule also showed an IDR in series [3] of 0.049 mg/min/cm^2. Besides, the “API concentration in solution” value in series [3] (after 45 minutes) is on record as ~20%; in series [3] (after 60 minutes) it was “above 30%”. The “Solid Phase Composition” value in series [4] (40° C./75% RH, open vial, 48 h) is given as “physically stable”; in series [4] (60° C./29% RH, open vial, 48 h), “physically stable”; in series [4] (80° C., closed vial, 24 h), “physically stable”. Further, the values for the Mass loss in series [4] (setting [11]), in series [4] (setting [12]) and in series [4] (setting [13]) were 9.2%, 8.5% and 9.1%, respectively. Also, the SOLUBILITY in series [5] (37 °C, pH 1.6, fassgf or other biorelevant, thermodynamic from solid, FaSSGF (pH 1.6), 1 hour, read-out: SOLUBILITY) is 9 mg/mL; in series [5] (37 °C, pH 5.1, fessif, thermodynamic from solid, FeSSIF (initial medium pH 5.1), 3 hours, read-out: SOLUBILITY) it was ~1 mg/mL; in series [5] (37 °C, pH 6.5, fassif, thermodynamic from solid, FaSSIF (pH 6.5), 3 hours, read-out: SOLUBILITY), < 0.1 mg/mL; in series [5] (setting [14]), ~ 9 mg/mL; in series [5] (FaSSGF (pH 1.6), 37° C., 1 hour, listed as A1), 8.9 mg/mL; in series [5] (setting [15]) it was “practically insoluble”. For the same molecule, the SOLUBILITY in series [5] (FeSSIF (initial medium pH 5.1), 37° C., 3 hours, listed as Al) was 0.8 mg/mL.
For `CC(C)[C@@H](CC[C@@H](C)[C@H]1CC[C@H]2[C@@H]3[C@H](O)C[C@H]4C[C@@H](NCCCNCCCCN)CC[C@]4(C)[C@H]3CC[C@]12C)OS(=O)(=O)O.O=P(O)(O)O` [Form B1, squalamine phosphate], the “Solid Phase Composition” value is “converted to Form A1” in series [4] (40° C./75% RH, open vial, 48 h); “converted to Form A1; also recorded: converting to squalamine Form A1” in series [4] (60° C./29% RH, open vial, 48 h); “physically stable” in series [4] (80° C., closed vial, 24 h). Besides, the Mass loss turned out to be 8.9% in series [4] (setting [11]), 9.0% in series [4] (setting [12]) and 1.8% in series [4] (setting [13]).
Turning to `CC(C)[C@@H](CC[C@@H](C)[C@H]1CC[C@H]2[C@@H]3[C@H](O)C[C@H]4C[C@@H](NCCCNCCCCN)CC[C@]4(C)[C@H]3CC[C@]12C)OS(=O)(=O)O.O=P(O)(O)O` [Form C, squalamine phosphate], the “physical stability under variable RH levels” value in series [1] was “physically stable in the range 40→85→40% RH”. Further, in series [2], the hygroscopic behavior result is “slightly hygroscopic”. Also, the change in mass in series [2] (setting [7]) amounted to 6%; in series [2] (setting [8]) it was 7.3%; in series [2] (last sorption cycle, 0-25% RH), 8.1%. For the same molecule, the “change in mass (water vapor uptake)” value in series [2] (setting [9]) was found to be 3.1%; in series [2] (setting [10]) it was 1.4%. This molecule displayed an IDR in series [3] of 0.014 mg/min/cm^2. Besides, the “API concentration in solution” value is on record as “below 10%” in series [3] (after 45 minutes) and “above 20%” in series [3] (after 60 minutes). The “Solid Phase Composition” value in series [4] (40° C./75% RH, open vial, 48 h) is reported as “physically stable”; in series [4] (60° C./29% RH, open vial, 48 h), “converted to Form A1”; in series [4] (80° C., closed vial, 24 h), “converted to Form A1”. For the same molecule, the Mass loss in series [4] (setting [11]) came to 12.6%; in series [4] (setting [12]) it was 8.7%; in series [4] (setting [13]), 8.8%. The SOLUBILITY in series [5] (setting [14]) was 16.9 mg/mL; in series [5] (setting [15]), “practically insoluble”; in series [5] (FaSSIF (pH 6.5), 37° C., 3 hours, listed as C), <0.1 mg/mL; in series [5] (FeSSIF (initial medium pH 5.1), 37° C., 3 hours), ~1 mg/mL; in series [5] (FeSSIF (initial medium pH 5.1), 37° C., 3 hours, listed as C), 0.9 mg/mL.
In the case of `CC(C)[C@@H](CC[C@@H](C)[C@H]1CCC2C3C(CC[C@@]21C)[C@@]1(C)CC[C@H](NCCCNCCCCN)C[C@@H]1C[C@H]3O)OS(=O)(=O)O.O=P(O)(O)O` (stereo partly shown) [Form D, squalamine phosphate], the “physical stability upon exposure to AAC” value in series [6] is listed as “physically unstable”.
